Values joined by “and” are separate entries in the source; they are usually repeats but may differ in a detail not shown here. Identical values can stand only once. Like-named read-outs stand apart in the source and are kept apart here.
Key:
human TRPV1 [1] = molecular target: T1, human TRPV1 (Homo sapiens, UniProt Q8NER1); assay: FLIPR Ca2+ assay, reduction of hydrogen peroxide activation of TRPV1; type: cell-based; design: expressed in transfected cells; conditions: for Ca++ counts: with compound; for inhibition at 400 µM: antagonist 400 μM against 500 μM hydrogen peroxide
T1 sequence (Q8NER1 whole entry): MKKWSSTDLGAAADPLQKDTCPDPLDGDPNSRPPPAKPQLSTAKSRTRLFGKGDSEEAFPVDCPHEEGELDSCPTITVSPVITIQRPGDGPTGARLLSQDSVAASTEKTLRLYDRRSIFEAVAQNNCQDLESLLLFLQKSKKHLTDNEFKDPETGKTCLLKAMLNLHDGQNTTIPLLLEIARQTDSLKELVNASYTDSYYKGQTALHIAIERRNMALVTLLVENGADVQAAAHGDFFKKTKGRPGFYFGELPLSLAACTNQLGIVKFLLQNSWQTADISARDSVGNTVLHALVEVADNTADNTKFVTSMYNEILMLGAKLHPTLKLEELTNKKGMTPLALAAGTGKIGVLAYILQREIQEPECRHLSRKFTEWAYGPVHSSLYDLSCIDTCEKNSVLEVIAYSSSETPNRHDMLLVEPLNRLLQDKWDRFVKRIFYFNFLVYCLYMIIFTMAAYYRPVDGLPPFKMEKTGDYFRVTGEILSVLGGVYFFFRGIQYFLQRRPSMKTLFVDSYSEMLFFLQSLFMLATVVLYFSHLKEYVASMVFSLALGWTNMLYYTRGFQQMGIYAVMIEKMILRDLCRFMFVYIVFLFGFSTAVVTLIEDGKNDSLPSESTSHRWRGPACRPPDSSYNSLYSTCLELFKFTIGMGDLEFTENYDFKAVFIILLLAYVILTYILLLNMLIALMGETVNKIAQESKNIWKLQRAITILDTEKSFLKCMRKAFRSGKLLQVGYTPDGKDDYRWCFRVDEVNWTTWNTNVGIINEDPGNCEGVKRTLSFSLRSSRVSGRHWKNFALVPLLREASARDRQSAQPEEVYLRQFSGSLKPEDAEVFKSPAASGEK

human TRPA1 = human TRPA1 (Homo sapiens, UniProt O75762); assay: FLIPR intracellular Ca2+ assay, direct (agonist) effect on TRPA1; type: cell-based; design: expressed in transfected cells; conditions: for percent hydrogen peroxide activation of TRPA1 compared to control agonist: control 50 μM AITC
Sequence of human TRPA1 (O75762 whole entry): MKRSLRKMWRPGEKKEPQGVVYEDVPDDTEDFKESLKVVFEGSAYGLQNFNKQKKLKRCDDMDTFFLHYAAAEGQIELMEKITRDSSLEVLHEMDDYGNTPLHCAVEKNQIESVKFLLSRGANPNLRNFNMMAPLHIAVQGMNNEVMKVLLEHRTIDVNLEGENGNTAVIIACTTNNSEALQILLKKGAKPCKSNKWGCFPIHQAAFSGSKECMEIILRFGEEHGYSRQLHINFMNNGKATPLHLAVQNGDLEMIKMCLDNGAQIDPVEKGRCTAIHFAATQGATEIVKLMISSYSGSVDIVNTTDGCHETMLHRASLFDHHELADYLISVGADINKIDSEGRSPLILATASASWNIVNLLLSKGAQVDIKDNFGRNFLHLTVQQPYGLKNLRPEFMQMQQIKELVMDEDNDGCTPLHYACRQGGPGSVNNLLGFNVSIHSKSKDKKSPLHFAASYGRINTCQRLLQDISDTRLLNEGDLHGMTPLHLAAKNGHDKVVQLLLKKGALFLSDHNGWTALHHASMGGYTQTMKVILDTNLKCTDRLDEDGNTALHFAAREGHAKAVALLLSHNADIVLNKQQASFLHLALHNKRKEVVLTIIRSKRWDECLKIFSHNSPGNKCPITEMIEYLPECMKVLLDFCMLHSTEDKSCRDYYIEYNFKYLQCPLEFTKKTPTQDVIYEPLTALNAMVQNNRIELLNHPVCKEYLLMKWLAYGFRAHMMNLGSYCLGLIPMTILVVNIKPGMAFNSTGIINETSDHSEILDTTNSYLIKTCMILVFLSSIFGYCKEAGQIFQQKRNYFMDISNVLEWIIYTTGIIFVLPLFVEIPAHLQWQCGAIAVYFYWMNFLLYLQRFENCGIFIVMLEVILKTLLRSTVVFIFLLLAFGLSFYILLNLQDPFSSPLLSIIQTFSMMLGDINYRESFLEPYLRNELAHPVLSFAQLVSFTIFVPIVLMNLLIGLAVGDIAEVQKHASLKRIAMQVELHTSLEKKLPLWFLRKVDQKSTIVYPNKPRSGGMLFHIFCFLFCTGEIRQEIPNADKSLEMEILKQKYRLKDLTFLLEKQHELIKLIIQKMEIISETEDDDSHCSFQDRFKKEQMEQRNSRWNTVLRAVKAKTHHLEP
Procedure: After centrifugation, a pellet of cells was formed in the bottom of the tube separating them from the supernatant solution.
(§1) The pelleted cells were re-suspended in 10 ml assay buffer and 90 μl aliquots (˜50,000 cells) per well delivered to a 96-well assay plate containing 10 μl of test compounds (1 mM in assay buffer, final concentration 100 μM) or buffer control and incubated at room temperature for 30 minutes.

human TRPV1 [2] = molecular target: T1, human TRPV1; assay: FLIPR Ca2+ assay, reduction of capsaicin activation of TRPV1; type: cell-based; design: expressed in transfected cells; conditions: with compound
Procedure: (§2) Cells were detached with addition of 10 ml of PBS (phosphate buffered saline) by hand shaking gently. Cells were transferred to a 50 ml tube and centrifuged at 850 rpm for 3 minutes to remove PBS.
The pelleted cells were re-suspended in 10 ml assay buffer and 90 μl aliquots (˜50,000 cells) per well delivered to a 96-well assay plate containing 10 μl of test compounds ([…]) or buffer control and incubated at room temperature for 30 minutes.

[3] = concentration where the cooling effect can be clearly recognized; cited from earlier work
human TRPV1 [4] = molecular target: T1, human TRPV1; conditions: for percent hydrogen peroxide activation of TRPV1 compared to control agonist: control 350 nM capsaicin
Procedure: as §2, §1

In the case of CC(=O)OC1CC2CCC1(C)C2(C)C (single isomer, unassigned; (-)) [(−)-Bornyl Acetate], the “reduction of hydrogen peroxide activation of TRPV1, in words” value (shortened to “reduction”) (human TRPV1 [1]) is reported as “reduce hydrogen peroxide activation of TRPV1”, the inhibition at 100 µM (human TRPV1 [1]; antagonist 100 μM against 500 μM hydrogen peroxide) is reported as 53% and the “Ca++ counts” value (human TRPV1 [1]; Dose 1000, 500 uM H2O2) is reported as 877. For the same molecule, the “effect on TRPA1 receptor, in words (agonist / enhancer)” value (“effect … (agonist / enhancer)” for short) (human TRPA1) was “TRPA1 agonists” and the “Ca++ counts” value (human TRPV1 [2]; Dose 1000, 350 nM Capsaicin) was 13976.

For CC(C)[C@@H]1CC[C@@H](C)C[C@@H]1O [1-neomenthol], the cooling threshold [3] is listed as “about 3,000 ppb”.

With COc1cc(CNC(=O)CCCC/C=C/C(C)C)ccc1O [Capsaicin] the “Ca2+ Count, TRPV1” value (human TRPV1 [4]; control agonist Capsaicin 350 nM) was 16204 Count.

For OO [H2O2, hydrogen peroxide], the “percent hydrogen peroxide activation of TRPV1 compared to control agonist” value (human TRPV1 [4]; H2O2 1 μM) was 1.51%, the “percent hydrogen peroxide activation of TRPV1 compared to control agonist” value (human TRPV1 [4]; H2O2 10 μM) was 3.10% and the “percent hydrogen peroxide activation of TRPV1 compared to control agonist” value (human TRPV1 [4]; H2O2 100 μM) was 17.45%. The “percent hydrogen peroxide activation of TRPV1 compared to control agonist” value (human TRPV1 [4]; H2O2 200 μM) was 21.18%, the “percent hydrogen peroxide activation of TRPV1 compared to control agonist” value (human TRPV1 [4]; H2O2 500 μM) was 30.21% and the “percent hydrogen peroxide activation of TRPV1 compared to control agonist” value (human TRPV1 [4]; H2O2 1 mM) was 41.13%. The “percent hydrogen peroxide activation of TRPV1 compared to control agonist” value (human TRPV1 [4]; H2O2 10 mM) was 62.81%, the “percent hydrogen peroxide activation of TRPV1 compared to control agonist” value (human TRPV1 [4]; H2O2 100 mM) was 209.29% and the “percent hydrogen peroxide activation of TRPA1 compared to control agonist” value (human TRPA1; H2O2 1 μM) was 1.4%. The “percent hydrogen peroxide activation of TRPA1 compared to control agonist” value (human TRPA1; H2O2 10 μM) was 9.6%, the “percent hydrogen peroxide activation of TRPA1 compared to control agonist” value (human TRPA1; H2O2 100 μM) was 91.4% and the “Average Ca++ Counts” value (human TRPA1; H2O2 200 μM alone, control of each Set 1-4) was 5881.5 Counts and 8721.8 Counts and 10592.2 Counts and 7043.6 Counts. For the same molecule, the “percent hydrogen peroxide activation of TRPA1 compared to control agonist” value (human TRPA1; H2O2 200 μM) was 111.7%, the “percent hydrogen peroxide activation of TRPA1 compared to control agonist” value (human TRPA1; H2O2 500 μM) was 129.1% and the “percent hydrogen peroxide activation of TRPA1 compared to control agonist” value (human TRPA1; H2O2 1 mM) was 123.4%. For the same molecule, the “percent hydrogen peroxide activation of TRPA1 compared to control agonist” value (human TRPA1; H2O2 10 mM) was 101.3% and the “percent hydrogen peroxide activation of TRPA1 compared to control agonist” value (human TRPA1; H2O2 100 mM) was 296.7%.

In the case of CC(C)[C@@H]1CC[C@@H](C)C[C@H]1O [L-menthol], the cooling threshold [3] is given as “about 800 ppb”.

For CCC(=O)OCCOc1ccccc1 [Phenoxyethyl Propionate], the “reduction” value (human TRPV1 [1]) was “reduce hydrogen peroxide activation of TRPV1”, the inhibition at 400 µM (human TRPV1 [1]) was 60% and the “Ca++ counts” value (human TRPV1 [1]; Dose 4000, 500 uM H2O2) was 737. For the same molecule, the “effect … (agonist / enhancer)” value (human TRPA1) was “TRPA1 agonists” and the “Ca++ counts” value (human TRPV1 [2]; Dose 4000, 350 nM Capsaicin) was 10922.

For CC(C)C(=O)OCc1ccc2c(c1)OCO2 [Piperonyl Isobutyrate], the “reduction” value (human TRPV1 [1]) was “reduces hydrogen peroxide activation of TRPV1”, the inhibition at 400 µM (human TRPV1 [1]) was 63% and the “Ca++ counts” value (human TRPV1 [1]; Dose 4000, 500 uM H2O2) was 682. For the same molecule, the “effect … (agonist / enhancer)” value (human TRPA1) was “enhancer of TRPA1” and the “Ca++ counts” value (human TRPV1 [2]; Dose 4000, 350 nM Capsaicin) was 10804.

In the case of CC(C)[C@@H]1CC[C@@H](C)C[C@@H]1O [d-neomenthol], the cooling threshold [3] is given as “about 25,000 ppb”.

Source: patent US20130315843A1, “COMPOSITION FOR REDUCTION OF TRPA1 AND TRPV1 SENSATIONS” (priority 2012, published 2013)
